According to paper PMC5424463, “A strategy based on nucleotide specificity leads to a subfamily-selective and cell-active inhibitor of N ^6-methyladenosine demethylase FTO” (Chemical Science, 2014):
Where a name gives a salt, the structure may show the parent alone. Read-outs that look alike come from different tables or passages of the source.

What was measured:
FTO [1] = biological target: T1, FTO (Homo sapiens, UniProt Q9C0B1); assay: HPLC-based inhibition assay for FTO, m3T substrate; type: biochemical
T1 construct: The human full length FTO construct used in this study; made in house; host or cells: E. coli BL21 (DE3) Rosetta T1R
T1 sequence (Q9C0B1 whole entry): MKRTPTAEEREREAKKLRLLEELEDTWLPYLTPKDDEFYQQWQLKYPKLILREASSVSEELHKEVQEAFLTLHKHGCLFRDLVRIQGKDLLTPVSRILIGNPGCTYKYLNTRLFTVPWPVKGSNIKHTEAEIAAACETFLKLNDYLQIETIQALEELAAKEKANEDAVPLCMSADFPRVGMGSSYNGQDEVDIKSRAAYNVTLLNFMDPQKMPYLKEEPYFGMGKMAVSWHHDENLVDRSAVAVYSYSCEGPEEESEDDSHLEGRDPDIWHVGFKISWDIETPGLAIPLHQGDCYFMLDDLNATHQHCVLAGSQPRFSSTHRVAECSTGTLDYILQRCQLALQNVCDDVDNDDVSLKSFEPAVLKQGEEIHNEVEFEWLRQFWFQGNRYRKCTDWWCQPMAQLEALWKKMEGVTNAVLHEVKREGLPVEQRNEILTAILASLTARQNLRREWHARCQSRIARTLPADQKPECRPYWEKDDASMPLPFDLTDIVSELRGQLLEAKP
Experimental: HPLC-based inhibition assays for FTO
The assay was modified from previously reported method.[17] It is performed in triplicate for each inhibitor, in a final reaction volume of 25 µL. Reaction consisted of FTO (1 µM), 2OG (50 µM), (NH4)2Fe(SO4)2·6H2O (50 µM), L-ascorbate (2 mM), 3-methylthymidine (m3T substrate, 10 µM) in 50 mM HEPES buffer, pH 7.5, and inhibitor at various concentrations (final DMSO concentration not more than 1% v/v of assay mix). The reaction was incubated at 4°C for 1 h, before analysis on a HPLC system. The substrate (m3T) and the demethylated product (thymidine) were separated using a Zorbax C18 column (4.6 mm x 250 mm) with a […]
flow rate of 1 mL/min at room temperature.
The percentage inhibition was estimated based on the peak areas of the 3-methylthymidine substrate and the thymidine product. For IC50 determination, eight different concentrations of […]
the variation in percentage demethylation at different inhibitor concentrations, using nonlinear regression, with normalized dose-response fit on GraphPad Prism 6.0™.
HPLC-based assay for FTO was also performed using an m6A-ssRNA as substrate. The assay was modified from previously reported method.[21] All reaction conditions are as described for the inhibition of m3T demethylation above, except that a 15-mer ssRNA with the sequence 5’-CUUGUCA(m6A)CAGCAGA-3’ (Yale University, W.M. Keck Foundation Biotechnology Resource Laboratory) was used as substrate (10 µM). The reaction was analysed on a bio-inert HPLC system. The m6A-ssRNA substrate and the corresponding demethylated product were separated using a Dionex DNAPac PA200 anion-exchange

FTO [2] = biological target: T1, FTO; assay: Differential scanning fluorimetry (DSF)-based binding assay, FTO; settings: 100 μM compound, 2 μM protein; for Tm shift (FTO): 50 μM MnCl2; for ΔTm at 100 µM: 50 μM MnCl2, read-out: Tm shift (FTO)
Experimental: (§1) Superdex-200 column (GE Healthcare) pre-equilibrated with 20 mM HEPES, pH 7.5, 300 mM NaCl, 10% (v/v) glycerol, 0.5 mM TCEP. […]
(§2) Differential scanning fluorimetry (DSF)-based binding assay
(§3) DSF-based binding assay was performed using a MiniOpticon™ Real-Time PCR Detection System (Bio-Rad), monitoring protein unfolding using SYPRO orange (Invitrogen) according […]
(§4) to the reported method.[16] […]
(§5) and emission respectively. Reaction mixes contained 2 μM protein, 50 μM MnCl2, 100 μM […]
(§6) Reagents were prepared in 50mM
(§7) HEPES buffer, pH 7.5 except metals, which were dissolved as 100 mM stocks in 20 mM HCl, then further diluted in MilliQ water. Compounds tested were prepared in 100% DMSO and added such that the final concentration of DMSO was not more than 1% v/v of assay […]
(§8) increased linearly by 1°C min -1. The software provided was used to perform global minimum subtraction. The inflection point, representing Tm, was calculated by fitting the Boltzmann equation to the sigmoidal curves obtained; data were processed using GraphPad Prism 6.0™.
(§9) The Tm shift caused by the addition of small molecules/ fragments was determined by subtraction of the “reference” Tm (protein incubated with metal and 1% v/v DMSO) from the Tm obtained in the presence of the compound. […]

AlkB = biological target: T2, AlkB (Escherichia coli, UniProt P05050); assay: Differential scanning fluorimetry (DSF)-based binding assay, AlkB; settings: 100 μM compound, 2 μM protein; for Tm shift (AlkB): 50 μM MnCl2; for ΔTm at 100 µM: 50 μM MnCl2, read-out: Tm shift (AlkB)
T2 construct: made in house; host or cells: E. coli BL21 (DE3) Rosetta T1R
T2 sequence (P05050 12-216): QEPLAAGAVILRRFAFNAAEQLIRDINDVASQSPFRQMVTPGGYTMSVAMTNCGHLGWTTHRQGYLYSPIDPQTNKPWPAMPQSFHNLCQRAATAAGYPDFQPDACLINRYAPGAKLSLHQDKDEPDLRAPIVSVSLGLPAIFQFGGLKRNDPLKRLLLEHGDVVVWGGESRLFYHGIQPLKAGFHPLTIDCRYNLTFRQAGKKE
Experimental: as §1, §2
(§10) DSF-based binding assay was performed using a MiniOpticon™ Real-Time PCR Detection System (Bio-Rad), monitoring protein unfolding using SYPRO orange (Invitrogen) according to the reported method.[16] FAM (492 nm) and ROX (610 nm) filters were used for excitation and emission respectively. Reaction mixes contained 2 μM protein, 50 μM MnCl2, 100 μM compounds, 5x SYPRO orange in a final volume of 50 μl. Reagents were prepared in 50mM HEPES buffer, pH 7.5 except metals, which were dissolved as 100 mM stocks in 20 mM HCl, then further diluted in MilliQ water. Compounds tested were prepared in 100% DMSO and added such that the final concentration of DMSO was not more than 1% v/v of assay […]
as §8, with “mix. Fluorescence readings were taken every 1°C in the range 25-95°C, with the temperature increased” for “increased”
(§11) The Tm shift caused by the addition of small molecules/ fragments was determined by subtraction of the “reference” Tm (protein incubated with metal and 1% v/v DMSO) from the Tm obtained in the presence of the compound. The assay was performed in triplicate for each inhibitor, with standard deviations typically < 1°C. […]

ALKBH2 = biological target: T3, ALKBH2 (Homo sapiens, UniProt Q6NS38); assay: Differential scanning fluorimetry (DSF)-based binding assay, ALKBH2; settings: DSF, 100 μM compound, 2 μM protein, 50 μM MnCl2; for ΔTm at 100 µM: read-out: Tm shift (ALKBH2)
T3 construct: made in house; host or cells: E. coli BL21 (DE3)
T3 sequence (Q6NS38 56-258): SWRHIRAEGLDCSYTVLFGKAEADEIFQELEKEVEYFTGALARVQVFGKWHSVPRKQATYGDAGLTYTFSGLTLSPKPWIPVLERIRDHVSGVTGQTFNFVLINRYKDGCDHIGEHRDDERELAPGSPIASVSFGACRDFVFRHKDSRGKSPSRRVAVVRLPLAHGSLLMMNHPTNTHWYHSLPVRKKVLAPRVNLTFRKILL
Experimental: as §1, §2, §10
as §8, with “mix. Fluorescence readings were taken every 1°C in the range 25-95°C, with the temperature increased” for “increased”
as §11

ALKBH3 = biological target: T4, ALKBH3 (Homo sapiens, UniProt Q96Q83); assay: Differential scanning fluorimetry (DSF)-based binding assay, ALKBH3; settings: DSF, 100 μM compound, 2 μM protein, 50 μM MnCl2; for ΔTm at 100 µM: read-out: Tm shift (ALKBH3)
T4 construct: Human ALKBH3 (encompassing residues 1- 286); purchased ProSpec-Tany Technogene Ltd, Israel
T4 sequence (Q96Q83 1-286): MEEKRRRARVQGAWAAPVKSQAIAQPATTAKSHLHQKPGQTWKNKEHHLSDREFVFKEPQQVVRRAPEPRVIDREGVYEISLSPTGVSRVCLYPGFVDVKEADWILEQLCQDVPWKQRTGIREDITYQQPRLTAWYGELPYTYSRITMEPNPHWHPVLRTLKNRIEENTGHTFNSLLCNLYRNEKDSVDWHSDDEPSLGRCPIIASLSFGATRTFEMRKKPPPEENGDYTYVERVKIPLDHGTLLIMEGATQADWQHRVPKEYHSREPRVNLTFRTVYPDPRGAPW
Experimental: as §1, §2, §10
as §8, with “mix. Fluorescence readings were taken every 1°C in the range 25-95°C, with the temperature increased” for “increased”
as §11

ALKBH5 = biological target: T5, ALKBH5 (Homo sapiens, UniProt Q6P6C2); assay: Differential scanning fluorimetry (DSF)-based binding assay, ALKBH5; settings: 100 μM compound, 2 μM protein; for Tm shift (ALKBH5): 50 μM MnCl2; for ΔTm at 100 µM: 50 μM MnCl2, read-out: Tm shift (ALKBH5)
T5 construct: pNIC28-Bsa4 ALKBH5 (encompassing residues 66-292); made in house; host or cells: E. coli BL21 (DE3) Rosetta T1R
T5 sequence (Q6P6C2 66-292): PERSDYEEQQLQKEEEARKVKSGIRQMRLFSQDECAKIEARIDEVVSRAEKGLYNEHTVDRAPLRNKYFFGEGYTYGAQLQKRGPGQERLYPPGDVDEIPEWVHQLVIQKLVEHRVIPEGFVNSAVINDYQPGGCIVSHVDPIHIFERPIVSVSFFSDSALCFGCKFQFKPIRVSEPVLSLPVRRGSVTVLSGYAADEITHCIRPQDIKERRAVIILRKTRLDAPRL
Experimental: as §1, §2, §3, §4, §5, §6, §7, §8, §9

[3] = HPLC-based demethylase assay, m3T substrate, read-out: IC50 (FTO)

Row | Molecule | Tm shift (FTO) (FTO [2]) [°C] | Tm shift (AlkB) (AlkB) [°C] | Tm shift (ALKBH2) (ALKBH2) [°C] | Tm shift (ALKBH3) (ALKBH3) [°C] | Tm shift (ALKBH5) (ALKBH5) [°C] | further results
1 | NNC(=O)CCC(=O)O [Compound 1, succinate hydrazide] |  |  |  |  |  | IC50 (FTO [1]; [3]): > 100 µM
2 | ATTGTGG(m3T)CTGCAGC: 15-mer m3T-containing ssDNA | 3.0 | 3.1 | 1.5 | 2.9 | 2.6 | 
3 | Cc1cn([C@H]2C[C@H](O)[C@@H](CO)O2)c(=O)n(C)c1=O [m3T, N ^3-methylthymidine] |  |  |  |  |  | ΔTm at 100 µM (FTO [2]): 12.1 °C; ΔTm at 100 µM (AlkB): 1.4 °C; ΔTm at 100 µM (ALKBH2): 1.1 °C; ΔTm at 100 µM (ALKBH3): 1.3 °C; ΔTm at 100 µM (ALKBH5): 1.1 °C
4 | ATTGTGG(m6A)CUGCAGC: 15-mer m6A-containing ssRNA | 3.0 | 2.7 | 1.0 | 3.0 | 3.5 | 
5 | CNc1ncnc2c1ncn2[C@@H]1O[C@H](CO)[C@@H](O)[C@H]1O [m6A, N ^6-methyladenosine] |  |  |  |  |  | ΔTm at 100 µM (FTO [2]): 2.4 °C; ΔTm at 100 µM (AlkB): 2.6 °C; ΔTm at 100 µM (ALKBH2): 1.3 °C; ΔTm at 100 µM (ALKBH3): 2.1 °C; ΔTm at 100 µM (ALKBH5): 9.8 °C
6 | ATTGTGG(A)CUGCAGC: unmethylated counterpart of the 15-mer m6A ssRNA | 3.4 | 2.4 | 1.2 | 3.5 | 3.6 | 
7 | ATTGTGG(T)CTGCAGC: unmethylated counterpart of the 15-mer m3T ssDNA | 3.2 | 2.7 | 1.3 | 2.4 | 3.4 | 
8 | O=C(O)/C=C/C(=O)NNC(=O)c1cnc2ccccc2c1 [Compound 8] |  |  |  |  |  | IC50 (FTO) (FTO [1]; HPLC-based demethylase assay, m3T substrate): low micromolar range
9 | NNC(=O)/C=C\C(=O)O [Compound 3, maleate hydrazide] |  |  |  |  |  | IC50 (FTO [1]; [3]): > 100 µM
10 | CN(C)NC(=O)CCC(=O)O [daminozide, reference compound] |  |  |  |  |  | IC50 (FTO [1]): > 100 µM
11 | NNC(=O)/C=C/C(=O)O [Compound 2, fumarate hydrazide] |  |  |  |  |  | IC50 (FTO [1]; [3]): > 100 µM
